Numbers after ± are expanded uncertainties.
Key:
[1] = refractive index (Na D-line) (dimensionless); conditions: 293.15 K; 101.33 kPa; Liquid; Standard Abbe refractometry
[2] = Liquid; for mass density: 293.15 K, 101.33 kPa; for vapor or sublimation pressure: Ebulliometric method (Recirculating still)

Row | refractive index [1] | mass density [2] [kg/m3] | vapor or sublimation pressure ([2]; 383.1 K) [kPa] | vapor or sublimation pressure ([2]; 404.24 K) [kPa] | vapor or sublimation pressure ([2]; 417.99 K) [kPa] | vapor or sublimation pressure ([2]; 426.54 K) [kPa] | vapor or sublimation pressure ([2]; 379.88 K) [kPa] | vapor or sublimation pressure ([2]; 401.28 K) [kPa] | vapor or sublimation pressure ([2]; 415.26 K) [kPa] | vapor or sublimation pressure ([2]; 423.97 K) [kPa] | vapor or sublimation pressure ([2]; 375.63 K) [kPa] | vapor or sublimation pressure ([2]; 392.7 K) [kPa] | vapor or sublimation pressure ([2]; 403.8 K) [kPa] | vapor or sublimation pressure ([2]; 410.86 K) [kPa] | SMILES
1 | 1.5171 ± 0.0007 | 994.1 ± 1.2 | 26.66 ± 0.25 | 53.33 ± 0.3 | 79.99 ± 0.43 | 101.32 ± 0.5 | – | – | – | – | – | – | – | – | COc1ccccc1 [anisole]
2 | 1.4055 ± 0.0007 | 717.6 ± 0.7 | – | – | – | – | 26.66 ± 0.25 | 53.33 ± 0.3 | 79.99 ± 0.42 | 101.32 ± 0.49 | – | – | – | – | CCCCCCCCC [nonane]
3 | 1.4098 ± 0.0007 | 814.5 ± 1 | – | – | – | – | – | – | – | – | 26.66 ± 0.31 | 53.33 ± 0.37 | 79.99 ± 0.53 | 101.32 ± 0.61 | CCCCCO [pentan-1-ol]

Source: the NIST ThermoML archive (doi:10.1021/je700594n)
